Reference: patent US9702866B2, “Glatiramer acetate human monocytic cell line-based potency assay” (SYNTHON B.V., priority 2013, dated 2017)

Key:
THP-1 cells [1] = assay: lactate dehydrogenase (LDH) release as marker for cell death in IFNγ-activated THP-1 cells; assay type: cell-based, human; conditions: 100 μg/ml glatiramer acetate, IFNγ (10 ng/ml)-activated THP-1 cells
THP-1 cells [2] = assay: sIL-1Ra expression of IFNγ-stimulated THP-1 cells after exposure to GA (ELISA); assay type: cell-based, human; conditions: THP-1 cells in the presence of IFNγ
Experimental: • Add 10 ml RPMI-1640 Medium (Lonza/Cambrex, #12-70F) with 10% FBS (fetal bovine serum) to a 15 ml sterile tube. • Remove one vial of THP-1 cells (ATCC, #TIB-202) from the liquid nitrogen storage tank and thaw the cells in the vial by gentle agitation in a 37° C.±1° C. water bath until almost totally thawed. • Sterilize the outside of the vial using a wipe, soaked in 70% (v/v) ethanol. • Using good aseptic technique, open the vial and transfer the contents of the vial into a Falcon tube, adding 10 ml of the pre-warmed RPMI-1640 plus 10% FBS. • Spin down at approximately 200 g for 5 minutes. Afterwards, discard the supernatant. • Resuspend the pellet into 10 ml pre-warmed RPMI-1640 plus 10% FBS, and transfer the cell suspension to a T-25 culture flask. • Place the T-25 cell culture flask into a humidified incubator at 37±1° C. and 5.0±1% CO2. Sub-Culturing (Passaging) of THP-1 Cells • THP-1 cells are sub-cultured every 3 or 4 days. • Collect cells and spin down at 200 g for 5 min. […] Supernatant Harvest and ELISA • After 72 hours of incubation centrifuge the 96-well plate at 200 g for 5 minutes. • Transfer 125 μl of the cell-free supernatant/well to a storage plate. • sIL-1Ra is determined in the cell supernatants using the sIL-1Ra ELISA kit from Quantikine, R&D, Minneapolis, Minn. […]

human monocytes = human monocytes in vitro; cited from earlier work
THP-1 cells [3] = assay: cell viability by ATP levels (CellTiter-Glo) in IFNγ-activated THP-1 cells; assay type: cell-based, human; conditions: IFNγ (25 ng/ml)-activated THP-1 cells, after 120 h of culture
Experimental: In another embodiment of the present invention, the viability of human monocytic cell line cells, particularly THP-1 cells, is measured. Suitable methods to determine viability of human monocytic cell line cells are well-known to the person skilled in the art. One suitable method is measuring ATP levels (for instance the CellTiter-Glo® Luminescent Cell Viability Assay is a homogeneous method to determine the number of viable cells in culture based on quantitation of the ATP present, which signals the presence of metabolically active cells) after a suitable time period, typically after 96-144 hours, particularly after 120 hours. When determining the number of viable cells, similar or slightly higher concentrations of IFNγ can be used as described above.
Upon confirmation of parallelism the reduced model will be fitted and the EC50 for the Reference and test batch will be estimated by EC50RS and EC50TA respectively. The relative potency of the test batch will be estimated as: Relative potency=EC50RS/EC50TA*100% Cell Viability • The number of metabolically active cells in the cultures is determined by the CellTiter-Glo® Luminescent Cell Viability Assay (Promega, G7571). […] It is based on quantitation of adenosine tri-phosphate (ATP), which signals the presence of metabolically active cells.

[4] = system: Human leukemic monocyte lymphoma cells (U937); assay: responsiveness of U937 cells to GA; assay type: cell-based
[5] = MS patients, in vivo; cited from earlier work

## Glatiramer acetate [GA]
THP-1 cells [1]
  cell death (LDH release): induces cell death
THP-1 cells [2]
  sIL-1Ra secretion: induces sIL-1Ra secretion
Human monocytes
  production of sIL-1Ra in monocytes: induces the production
THP-1 cells [3]
  cell viability (ATP levels): cell viability inhibition
[4]
  responsiveness of cells to GA: not responsive
[5]
  sIL-1Ra circulating levels: enhances sIL-1Ra circulating levels
